In the supplement of paper PMC13380429:

Columns and labels:
Settings in all cases: 72 h
[1] = tested on: U2OS; assay: relative viability EC50 (midpoint between 100% and the lowest measured viability); higher = less toxic
[2] = tested on: Caco-2; assay: as above
[3] = tested on: Vero E6; assay: as above
[4] = tested on: HepG2; assay: as above
[5] = tested on: Calu-3; assay: as above
[6] = tested on: U2OS; assay: cell viability relative to DMSO; higher = less toxic
[7] = tested on: Caco-2; assay: as above
[8] = tested on: Vero E6; assay: as above
[9] = tested on: HepG2; assay: as above
[10] = tested on: Calu-3; assay: as above
[11] = tested on: U2OS; assay: drug sensitivity score (DSS) for viability; higher = more toxic; extreme values may be limits of the assay
[12] = tested on: Caco-2; assay: as above
[13] = tested on: Vero E6; assay: as above
[14] = tested on: HepG2; assay: as above
[15] = tested on: Calu-3; assay: as above

Structure (SMILES)	relative viability EC50 [1]	relative viability EC50 [2]	relative viability EC50 [3]	relative viability EC50 [4]	relative viability EC50 [5]	cell viability ([6]; 1 nM)	cell viability ([6]; 10 nM)	cell viability ([6]; 100 nM)	cell viability ([6]; 1000 nM)	cell viability ([6]; 10000 nM)	cell viability ([7]; 1 nM)	cell viability ([7]; 10 nM)	cell viability ([7]; 100 nM)	cell viability ([7]; 1000 nM)	cell viability ([7]; 10000 nM)	cell viability ([8]; 1 nM)	cell viability ([8]; 10 nM)	cell viability ([8]; 100 nM)	cell viability ([8]; 1000 nM)	cell viability ([8]; 10000 nM)	cell viability ([9]; 1 nM)	cell viability ([9]; 10 nM)	cell viability ([9]; 100 nM)	cell viability ([9]; 1000 nM)	cell viability ([9]; 10000 nM)	cell viability ([10]; 1 nM)	cell viability ([10]; 10 nM)	cell viability ([10]; 100 nM)	cell viability ([10]; 1000 nM)	cell viability ([10]; 10000 nM)	drug sensitivity score [11]	drug sensitivity score [12]	drug sensitivity score [13]	drug sensitivity score [14]	drug sensitivity score [15]
CCOc1cc(C=O)ccc1O [ethyl-vanillin]	> 10 µM	> 10 µM	> 10 µM	> 10 µM	> 10 µM	97.4%	102%	96.2%	101%	99.9%	99.3%	92.5%	98.5%	78.4%	101%	106%	92.8%	107%	95.1%	91.6%	117%	99.5%	96.2%	103%	97.1%	98.6%	108%	102%	97.5%	99.3%	0	0	0	0	0
O=[N+]([O-])O[C@H]1CO[C@H]2[C@@H]1OC[C@H]2O[N+](=O)[O-] [isosorbide-dinitrate]	> 10 µM	> 10 µM	> 10 µM	> 10 µM	> 10 µM	100%	96.1%	100%	99.8%	99%	99.1%	95%	102%	90.5%	98.7%	94.2%	102%	92.5%	97.1%	108%	90.6%	117%	102%	113%	101%	99.4%	101%	101%	101%	107%	0	0	0	0	0
CC1(C)CC[C@]2(C(=O)O)CC[C@]3(C)C(=CC[C@@H]4[C@@]5(C)CC[C@H](O)C(C)(C)[C@@H]5CC[C@]43C)[C@@H]2C1 [oleanolic-acid]	> 10 µM	> 10 µM	> 10 µM	> 10 µM	> 10 µM	95.2%	98.1%	94.4%	102%	94.5%	104%	97.1%	93%	104%	95.6%	96.3%	94.7%	94.9%	95.3%	95.3%	106%	96.2%	89.9%	99.9%	94.7%	109%	110%	98.3%	109%	89.8%	0	0	0	0	0
O=C(O[C@H]1CN2CCC1CC2)N(Cc1cc(F)c(F)c(F)c1)c1cccc(F)c1 [tarafenacin]	> 10 µM	> 10 µM	> 10 µM	> 10 µM	> 10 µM	95.7%	102%	100%	103%	91.3%	102%	96.5%	91.3%	104%	95.7%	99.7%	99.6%	107%	98.7%	90.2%	115%	106%	108%	96.5%	99.3%	96.4%	106%	106%	113%	96.2%	0	0	0	0	0
C=CC[N+]1([C@H]2C[C@H]3[C@@H]4CC[C@H]5C[C@H](O)[C@@H](N6CCOCC6)C[C@]5(C)[C@H]4CC[C@]3(C)[C@H]2OC(C)=O)CCCC1 [ROCURONIUM BROMIDE]	> 10 µM	> 10 µM	> 10 µM	> 10 µM	> 10 µM	106%	99.3%	103%	103%	108%	104%	103%	107%	132%	79.8%	91%	95.1%	89.5%	88.5%	95.6%	97.7%	113%	108%	111%	108%	98.1%	105%	107%	94.9%	105%	0	0.2	0	0	0
OC[C@@H](O)[C@@H](O)[C@H](O)[C@@H](O)CO [sorbitol]	> 10 µM	> 10 µM	> 10 µM	> 10 µM	> 10 µM	104%	99.5%	96.6%	101%	95.5%	96.4%	105%	100%	109%	93.6%	102%	99.9%	103%	88.8%	92.2%	95.3%	84%	94.7%	94.8%	82.3%	101%	98%	98.3%	102%	101%	0	0	0.3	0	0
CC(=O)NCCCOc1ccc(C(=O)N2CCC(N3C(=O)CCc4ccccc43)CC2)cc1	> 10 µM	> 10 µM	> 10 µM	> 10 µM	> 10 µM	98%	100%	97.3%	101%	95.5%	104%	90.1%	76%	104%	88.6%	105%	92.6%	95.6%	104%	106%	113%	92.3%	116%	112%	107%	81%	84.4%	77.8%	86.9%	79%	0	0	0	0	0
